# Experimental data from ChEMBL document CHEMBL5365394, “Design, synthesis and biological evaluation of novel spiro-quinazolinone derivatives as chitin synthase inhibitors and antifungal agents” (Eur J Med Chem, 2023).
# What was measured:
# Aspergillus flavus [1] = test: Additive antifungal activity against Aspergillus flavus ATCC 16870 assessed as fractional inhibitory concentration index incubated for 24 hrs in presence of polyoxin B by checkerboard broth microdilution method; type: functional
# Aspergillus fumigatus [2] = test: Antifungal activity against Aspergillus fumigatus GIMCC 3.19 assessed as fungal growth inhibition incubated for 24 hrs by two-fold serial dilution method; type: functional
# Candida albicans [3] = test: Antifungal activity against Micafungin-resistant Candida albicans ATCC 76615R assessed as fungal growth inhibition; type: functional
# Aspergillus fumigatus [4] = test: Antifungal activity against Aspergillus fumigatus GIMCC 3.19 assessed as inhibition of cell wall synthesis incubated for 24 hrs in absence of sorbitol; type: functional
# [5] = Inhibition of Candida tropicalis ATCC 750 chitin synthase using UDP-GlcNAc as substrate incubated for 1 hr by absorbance based assay
# Candida albicans [6] = test: Antifungal activity against Fluconazole-resistant Candida albicans ATCC 76615R assessed as fungal growth inhibition; type: functional
# Cryptococcus neoformans [7] = test: Antifungal activity against Cryptococcus neoformans ATCC 32719 assessed as fungal growth inhibition incubated for 24 hrs by two-fold serial dilution method; type: functional
# Aspergillus flavus [8] = test: Antifungal activity against Aspergillus flavus ATCC 16870 assessed as fungal growth inhibition incubated for 24 hrs by two-fold serial dilution method; type: functional
# Aspergillus fumigatus [9] = test: Synergistic antifungal activity against Aspergillus fumigatus GIMCC 3.19 assessed as fluconazole MIC incubated for 24 hrs in by checkerboard broth microdilution method; type: functional
# Aspergillus fumigatus [10] = test: Synergistic antifungal activity against Aspergillus fumigatus GIMCC 3.19 assessed as polyoxin B MIC incubated for 24 hrs by checkerboard broth microdilution method; type: functional
# Candida albicans [11] = test: Antifungal activity against Candida albicans ATCC 76615 assessed as inhibition of cell wall synthesis incubated for 24 hrs in absence of sorbitol; type: functional
# Aspergillus flavus [12] = test: Additive antifungal activity against Aspergillus flavus ATCC 16870 assessed as fractional inhibitory concentration index incubated for 24 hrs in presence of fluconazole by checkerboard broth microdilution method; type: functional
# Cryptococcus neoformans [13] = test: Antifungal activity against Cryptococcus neoformans ATCC 32719 assessed as inhibition of cell wall synthesis incubated for 24 hrs in presence of sorbitol; type: functional
# Cryptococcus neoformans [14] = test: Synergistic antifungal activity against Cryptococcus neoformans ATCC 32719 assessed as fluconazole MIC incubated for 24 hrs in by checkerboard broth microdilution method; type: functional
# Candida albicans [15] = test: Synergistic antifungal activity against Candida albicans ATCC 76615 assessed as fluconazole MIC incubated for 24 hrs in by checkerboard broth microdilution method; type: functional
# Aspergillus flavus [16] = test: Antifungal activity against Aspergillus flavus ATCC 16870 assessed as inhibition of cell wall synthesis incubated for 24 hrs in presence of sorbitol; type: functional
# Aspergillus flavus [17] = test: Antifungal activity against Aspergillus flavus ATCC 16870 assessed as inhibition of cell wall synthesis incubated for 24 hrs in absence of sorbitol; type: functional
# Candida albicans [18] = test: Antifungal activity against Candida albicans ATCC 76615 assessed as inhibition of cell wall synthesis incubated for 24 hrs in presence of sorbitol; type: functional
# Aspergillus flavus [19] = test: Antifungal activity against Fluconazole-resistant Aspergillus flavus ATCC 16870R assessed as fungal growth inhibition; type: functional
# Cryptococcus neoformans [20] = test: Antifungal activity against Cryptococcus neoformans ATCC 32719 assessed as inhibition of cell wall synthesis incubated for 24 hrs in absence of sorbitol; type: functional
# Cryptococcus neoformans [21] = test: Additive antifungal activity against Cryptococcus neoformans ATCC 32719 assessed as fractional inhibitory concentration index incubated for 24 hrs in presence of polyoxin B by checkerboard broth microdilution method; type: functional
# Candida albicans [22] = test: Additive antifungal activity against Candida albicans ATCC 76615 assessed as fractional inhibitory concentration index incubated for 24 hrs in presence of fluconazole by checkerboard broth microdilution method; type: functional
# Candida albicans [23] = test: Antifungal activity against Candida albicans ATCC 76615 assessed as fungal growth inhibition incubated for 24 hrs by two-fold serial dilution method; type: functional
# Cryptococcus neoformans [24] = test: Antifungal activity against Fluconazole-resistant Cryptococcus neoformans ATCC 32719R assessed as fungal growth inhibition; type: functional
# Aspergillus fumigatus [25] = test: Antifungal activity against Aspergillus fumigatus GIMCC 3.19 assessed as inhibition of cell wall synthesis incubated for 24 hrs in presence of sorbitol; type: functional
# Candida albicans [26] = test: Synergistic antifungal activity against Candida albicans ATCC 76615 assessed as fractional inhibitory concentration index incubated for 24 hrs in presence of polyoxin B by checkerboard broth microdilution method; type: functional
# Cryptococcus neoformans [27] = test: Additive antifungal activity against Cryptococcus neoformans ATCC 32719 assessed as fractional inhibitory concentration index incubated for 24 hrs in presence of fluconazole by checkerboard broth microdilution method; type: functional
# Aspergillus flavus [28] = test: Synergistic antifungal activity against Aspergillus flavus ATCC 16870 assessed as fluconazole MIC incubated for 24 hrs in by checkerboard broth microdilution method; type: functional
# Aspergillus flavus [29] = test: Synergistic antifungal activity against Aspergillus flavus ATCC 16870 assessed as polyoxin B MIC incubated for 24 hrs by checkerboard broth microdilution method; type: functional
# Candida tropicalis = test: Inhibition of Candida tropicalis ATCC 750 chitin synthase using […] as substrate at 300 ug/ml incubated for 1 hr by absorbance based assay relative to control; conditions: dose 300.0 µg/ml
# Aspergillus fumigatus [30] = test: Antifungal activity against Fluconazole-resistant Aspergillus fumigatus GIMCC 3.19R assessed as fungal growth inhibition; type: functional
# Aspergillus fumigatus [31] = test: Additive antifungal activity against Aspergillus fumigatus GIMCC 3.19 assessed as fractional inhibitory concentration index incubated for 24 hrs in presence of fluconazole by checkerboard broth microdilution method; type: functional
# Aspergillus fumigatus [32] = test: Additive antifungal activity against Aspergillus fumigatus GIMCC 3.19 assessed as fractional inhibitory concentration index incubated for 24 hrs in presence of polyoxin B by checkerboard broth microdilution method; type: functional
# Candida albicans [33] = test: Synergistic antifungal activity against Candida albicans ATCC 76615 assessed as polyoxin B MIC incubated for 24 hrs by checkerboard broth microdilution method; type: functional
# Cryptococcus neoformans [34] = test: Synergistic antifungal activity against Cryptococcus neoformans ATCC 32719 assessed as polyoxin B MIC incubated for 24 hrs in by checkerboard broth microdilution method; type: functional
# Aspergillus fumigatus [35] = test: Synergistic antifungal activity against Aspergillus fumigatus GIMCC 3.19 assessed as fractional inhibitory concentration index incubated for 24 hrs in presence of fluconazole by checkerboard broth microdilution method; type: functional
# Aspergillus fumigatus [36] = test: Synergistic antifungal activity against Aspergillus fumigatus GIMCC 3.19 assessed as fractional inhibitory concentration index incubated for 24 hrs in presence of polyoxin B by checkerboard broth microdilution method; type: functional
# Aspergillus flavus [37] = test: Synergistic antifungal activity against Aspergillus flavus ATCC 16870 assessed as fractional inhibitory concentration index incubated for 24 hrs in presence of fluconazole by checkerboard broth microdilution method; type: functional
SMILES,fractional inhibitory concentration index (FICI) (Aspergillus flavus [1]),MIC (Aspergillus fumigatus [2]),MIC (Candida albicans [3]),MIC (Aspergillus fumigatus [4]),IC50 [5],MIC (Candida albicans [6]),MIC (Cryptococcus neoformans [7]),MIC (Aspergillus flavus [8]),MIC (Aspergillus fumigatus [9]),MIC (Aspergillus fumigatus [10]),MIC (Candida albicans [11]),MIC (Cryptococcus neoformans [13]),MIC (Cryptococcus neoformans [14]),MIC (Candida albicans [15]),MIC (Aspergillus flavus [16]),MIC (Aspergillus flavus [17]),MIC (Candida albicans [18]),MIC (Aspergillus flavus [19]),MIC (Cryptococcus neoformans [20]),fractional inhibitory concentration index (FICI) (Cryptococcus neoformans [21]),further results
Cc1ccc([N+](=O)[O-])cc1NC(=O)/C=C/C(=O)Nc1ccc2c(c1)C(=O)NC1(CCSC1)N2 (stereo not given),1.125,16 µg/mL,16 µg/mL,16 µg/mL,123 µM,16 µg/mL,8 µg/mL,16 µg/mL,1 µg/mL,2 µg/mL,8 µg/mL,128 µg/mL,2 µg/mL,2 µg/mL,256 µg/mL,16 µg/mL,128 µg/mL,32 µg/mL,16 µg/mL,1.5,fractional inhibitory concentration index (FICI) (Aspergillus flavus [12]): 1.25; fractional inhibitory concentration index (FICI) (Candida albicans [22]): 1.5; MIC (Candida albicans [23]): 2 µg/mL; MIC (Cryptococcus neoformans [24]): 32 µg/mL; MIC (Aspergillus fumigatus [25]): 128 µg/mL; fractional inhibitory concentration index (FICI) (Candida albicans [26]): 0.5; fractional inhibitory concentration index (FICI) (Cryptococcus neoformans [27]): 1.5; MIC (Aspergillus flavus [28]): 1 µg/mL; MIC (Aspergillus flavus [29]): 2 µg/mL; inhibition (Candida tropicalis): 77.4%; MIC (Aspergillus fumigatus [30]): 16 µg/mL; fractional inhibitory concentration index (FICI) (Aspergillus fumigatus [31]): 1.125; fractional inhibitory concentration index (FICI) (Aspergillus fumigatus [32]): 1.125; MIC (Candida albicans [33]): 2 µg/mL; MIC (Cryptococcus neoformans [34]): 16 µg/mL
O=C(/C=C/C(=O)Nc1ccccc1[N+](=O)[O-])Nc1ccc2c(c1)C(=O)NC1(CCSC1)N2 (stereo not given),1.125,1 µg/mL,8 µg/mL,4 µg/mL,102 µM,8 µg/mL,4 µg/mL,1 µg/mL,1 µg/mL,2 µg/mL,8 µg/mL,128 µg/mL,0.5 µg/mL,2 µg/mL,128 µg/mL,8 µg/mL,128 µg/mL,16 µg/mL,8 µg/mL,1.5,fractional inhibitory concentration index (FICI) (Aspergillus fumigatus [35]): 0.375; fractional inhibitory concentration index (FICI) (Aspergillus fumigatus [36]): 0.625; fractional inhibitory concentration index (FICI) (Candida albicans [22]): 1.125; MIC (Candida albicans [23]): 1 µg/mL; MIC (Cryptococcus neoformans [24]): 8 µg/mL; MIC (Aspergillus fumigatus [25]): 64 µg/mL; fractional inhibitory concentration index (FICI) (Aspergillus flavus [37]): 1; fractional inhibitory concentration index (FICI) (Candida albicans [26]): 0.75; fractional inhibitory concentration index (FICI) (Cryptococcus neoformans [27]): 1.125; MIC (Aspergillus flavus [28]): 2 µg/mL; MIC (Aspergillus flavus [29]): 16 µg/mL; inhibition (Candida tropicalis): 81.9%; MIC (Aspergillus fumigatus [30]): 8 µg/mL; MIC (Candida albicans [33]): 4 µg/mL; MIC (Cryptococcus neoformans [34]): 16 µg/mL
